# Numbers after ± are expanded uncertainties.
# Conditions: 313.15 K, Liquid, Vibrating tube method
structure (smiles),measurement,setting,value
"FC(C(F)(F)F)C(F)(F)F [1,1,1,2,3,3,3-heptafluoropropane]",mass density,13017 kPa,1415.6 ± 1.6 kg/m3
same,mass density,13123 kPa,1416.2 ± 1.6 kg/m3
same,mass density,13155 kPa,1416.3 ± 1.6 kg/m3
same,mass density,13192 kPa,1416.5 ± 1.6 kg/m3
same,mass density,13220 kPa,1416.6 ± 1.6 kg/m3
same,mass density,13252 kPa,1417 ± 1.6 kg/m3
same,mass density,13275 kPa,1417.1 ± 1.6 kg/m3
same,mass density,13311 kPa,1417.3 ± 1.6 kg/m3
same,mass density,13338 kPa,1417.4 ± 1.6 kg/m3
same,mass density,13374 kPa,1417.6 ± 1.6 kg/m3
same,mass density,13406 kPa,1417.6 ± 1.6 kg/m3
same,mass density,13443 kPa,1418 ± 1.6 kg/m3
same,mass density,13476 kPa,1418.1 ± 1.6 kg/m3
same,mass density,13514 kPa,1418.3 ± 1.6 kg/m3
same,mass density,13538 kPa,1418.3 ± 1.6 kg/m3
same,mass density,13572 kPa,1418.6 ± 1.6 kg/m3
same,mass density,13615 kPa,1418.9 ± 1.6 kg/m3
same,mass density,13653 kPa,1419.1 ± 1.6 kg/m3
same,mass density,13686 kPa,1419.4 ± 1.6 kg/m3
same,mass density,13729 kPa,1419.6 ± 1.6 kg/m3
same,mass density,13757 kPa,1419.6 ± 1.6 kg/m3
same,mass density,13800 kPa,1419.9 ± 1.6 kg/m3
same,mass density,13833 kPa,1420.1 ± 1.6 kg/m3
same,mass density,13862 kPa,1420.3 ± 1.6 kg/m3
same,mass density,13891 kPa,1420.4 ± 1.6 kg/m3
same,mass density,13925 kPa,1420.6 ± 1.6 kg/m3
same,mass density,13959 kPa,1420.6 ± 1.6 kg/m3
same,mass density,13998 kPa,1420.9 ± 1.6 kg/m3
same,mass density,14038 kPa,1421.2 ± 1.6 kg/m3
same,mass density,14071 kPa,1421.4 ± 1.6 kg/m3
same,mass density,14109 kPa,1421.6 ± 1.6 kg/m3
same,mass density,14152 kPa,1421.9 ± 1.6 kg/m3
same,mass density,14190 kPa,1422 ± 1.6 kg/m3
same,mass density,14230 kPa,1422.4 ± 1.6 kg/m3
same,mass density,14386 kPa,1422.9 ± 1.6 kg/m3
same,mass density,14416 kPa,1423.1 ± 1.6 kg/m3
same,mass density,14459 kPa,1423.5 ± 1.6 kg/m3
same,mass density,14490 kPa,1423.7 ± 1.6 kg/m3
same,mass density,14534 kPa,1423.8 ± 1.6 kg/m3
same,mass density,14559 kPa,1423.9 ± 1.6 kg/m3
same,mass density,14599 kPa,1424.1 ± 1.6 kg/m3
same,mass density,14628 kPa,1424.3 ± 1.6 kg/m3
same,mass density,14673 kPa,1424.6 ± 1.6 kg/m3
same,mass density,14708 kPa,1424.9 ± 1.6 kg/m3
same,mass density,14737 kPa,1424.9 ± 1.6 kg/m3
same,mass density,14767 kPa,1425 ± 1.6 kg/m3
same,mass density,14796 kPa,1425.3 ± 1.6 kg/m3
same,mass density,14836 kPa,1425.4 ± 1.6 kg/m3
same,mass density,14865 kPa,1425.6 ± 1.6 kg/m3
same,mass density,14904 kPa,1425.8 ± 1.6 kg/m3
same,mass density,14933 kPa,1425.9 ± 1.6 kg/m3
same,mass density,14966 kPa,1426.1 ± 1.6 kg/m3
same,mass density,14996 kPa,1426.1 ± 1.6 kg/m3
same,mass density,15036 kPa,1426.5 ± 1.6 kg/m3
same,mass density,15063 kPa,1426.5 ± 1.6 kg/m3
same,mass density,15093 kPa,1426.7 ± 1.6 kg/m3
same,mass density,15124 kPa,1426.9 ± 1.6 kg/m3
same,mass density,15155 kPa,1427 ± 1.6 kg/m3
same,mass density,15184 kPa,1427.2 ± 1.6 kg/m3
same,mass density,15210 kPa,1427.4 ± 1.6 kg/m3
same,mass density,15246 kPa,1427.5 ± 1.6 kg/m3
same,mass density,15282 kPa,1427.7 ± 1.6 kg/m3
same,mass density,15313 kPa,1428.1 ± 1.6 kg/m3
same,mass density,15346 kPa,1427.9 ± 1.6 kg/m3
same,mass density,15372 kPa,1428.3 ± 1.6 kg/m3
same,mass density,15412 kPa,1428.5 ± 1.6 kg/m3
same,mass density,15443 kPa,1428.6 ± 1.6 kg/m3
same,mass density,15484 kPa,1428.7 ± 1.6 kg/m3
same,mass density,15512 kPa,1429 ± 1.6 kg/m3
same,mass density,15540 kPa,1429 ± 1.6 kg/m3
same,mass density,15570 kPa,1429.3 ± 1.6 kg/m3
same,mass density,15597 kPa,1429.5 ± 1.6 kg/m3
same,mass density,15629 kPa,1429.6 ± 1.6 kg/m3
same,mass density,15661 kPa,1429.7 ± 1.6 kg/m3
same,mass density,15703 kPa,1429.9 ± 1.6 kg/m3
same,mass density,15744 kPa,1430 ± 1.6 kg/m3
same,mass density,15771 kPa,1430.2 ± 1.6 kg/m3
same,mass density,15813 kPa,1430.6 ± 1.6 kg/m3
same,mass density,15845 kPa,1430.6 ± 1.6 kg/m3
same,mass density,15887 kPa,1430.9 ± 1.6 kg/m3
same,mass density,15924 kPa,1431.2 ± 1.6 kg/m3
same,mass density,15947 kPa,1431.2 ± 1.6 kg/m3
same,mass density,15988 kPa,1431.4 ± 1.6 kg/m3
same,mass density,16024 kPa,1431.6 ± 1.6 kg/m3
same,mass density,16051 kPa,1431.6 ± 1.6 kg/m3
same,mass density,16091 kPa,1431.9 ± 1.6 kg/m3
same,mass density,16136 kPa,1432.1 ± 1.6 kg/m3
same,mass density,16169 kPa,1432.2 ± 1.6 kg/m3
same,mass density,16230 kPa,1432.6 ± 1.6 kg/m3
same,mass density,16290 kPa,1432.9 ± 1.6 kg/m3
same,mass density,16326 kPa,1433 ± 1.6 kg/m3
same,mass density,16358 kPa,1433.3 ± 1.6 kg/m3
same,mass density,16395 kPa,1433.5 ± 1.6 kg/m3
same,mass density,16436 kPa,1433.6 ± 1.6 kg/m3
same,mass density,16468 kPa,1433.7 ± 1.6 kg/m3
same,mass density,16504 kPa,1434 ± 1.6 kg/m3
same,mass density,16582 kPa,1434.4 ± 1.6 kg/m3
same,mass density,16615 kPa,1434.6 ± 1.6 kg/m3
same,mass density,16652 kPa,1434.6 ± 1.6 kg/m3
same,mass density,16709 kPa,1435 ± 1.6 kg/m3
same,mass density,16737 kPa,1434.9 ± 1.6 kg/m3
same,mass density,16807 kPa,1435.4 ± 1.6 kg/m3
same,mass density,16839 kPa,1435.5 ± 1.6 kg/m3
same,mass density,16867 kPa,1435.7 ± 1.6 kg/m3
same,mass density,16905 kPa,1436.1 ± 1.6 kg/m3
same,mass density,16942 kPa,1436.1 ± 1.6 kg/m3
same,mass density,16974 kPa,1436.3 ± 1.6 kg/m3
same,mass density,17006 kPa,1436.5 ± 1.6 kg/m3
same,mass density,17039 kPa,1436.6 ± 1.6 kg/m3
same,mass density,17075 kPa,1436.8 ± 1.6 kg/m3
same,mass density,17104 kPa,1436.8 ± 1.6 kg/m3
same,mass density,17132 kPa,1437.2 ± 1.6 kg/m3
same,mass density,17165 kPa,1437.3 ± 1.6 kg/m3
same,mass density,17197 kPa,1437.3 ± 1.6 kg/m3
same,mass density,17235 kPa,1437.5 ± 1.6 kg/m3
same,mass density,17267 kPa,1437.6 ± 1.6 kg/m3
same,mass density,17294 kPa,1437.8 ± 1.6 kg/m3
same,mass density,17334 kPa,1438 ± 1.6 kg/m3
same,mass density,17360 kPa,1438.1 ± 1.6 kg/m3
same,mass density,17392 kPa,1438.3 ± 1.6 kg/m3
same,mass density,17427 kPa,1438.5 ± 1.6 kg/m3
same,mass density,17459 kPa,1438.7 ± 1.6 kg/m3
same,mass density,17496 kPa,1438.9 ± 1.6 kg/m3
same,mass density,17519 kPa,1439 ± 1.6 kg/m3
same,mass density,17551 kPa,1439.2 ± 1.6 kg/m3
same,mass density,17575 kPa,1439.3 ± 1.6 kg/m3
same,mass density,17616 kPa,1439.4 ± 1.6 kg/m3
same,mass density,17652 kPa,1439.6 ± 1.6 kg/m3
same,mass density,17684 kPa,1439.7 ± 1.6 kg/m3
same,mass density,17711 kPa,1440 ± 1.6 kg/m3
same,mass density,17743 kPa,1440 ± 1.6 kg/m3
same,mass density,17775 kPa,1440.1 ± 1.6 kg/m3
same,mass density,17811 kPa,1440.3 ± 1.6 kg/m3
same,mass density,17839 kPa,1440.4 ± 1.6 kg/m3
same,mass density,17877 kPa,1440.6 ± 1.6 kg/m3
same,mass density,17906 kPa,1440.8 ± 1.6 kg/m3
same,mass density,17943 kPa,1440.9 ± 1.6 kg/m3
same,mass density,17971 kPa,1441.1 ± 1.6 kg/m3
same,mass density,18008 kPa,1441.2 ± 1.6 kg/m3
same,mass density,18041 kPa,1441.4 ± 1.6 kg/m3
same,mass density,18077 kPa,1441.6 ± 1.6 kg/m3
same,mass density,18110 kPa,1441.7 ± 1.6 kg/m3
same,mass density,18143 kPa,1442 ± 1.6 kg/m3
same,mass density,18176 kPa,1442.1 ± 1.6 kg/m3
same,mass density,18204 kPa,1442.2 ± 1.6 kg/m3
same,mass density,18242 kPa,1442.3 ± 1.6 kg/m3
same,mass density,18277 kPa,1442.6 ± 1.6 kg/m3
same,mass density,18309 kPa,1442.7 ± 1.6 kg/m3
same,mass density,18337 kPa,1442.8 ± 1.6 kg/m3
same,mass density,18375 kPa,1443 ± 1.6 kg/m3
same,mass density,18403 kPa,1443.1 ± 1.6 kg/m3
same,mass density,18441 kPa,1443.2 ± 1.6 kg/m3
same,mass density,18469 kPa,1443.5 ± 1.6 kg/m3
same,mass density,18507 kPa,1443.6 ± 1.6 kg/m3
same,mass density,18691 kPa,1444.6 ± 1.6 kg/m3
same,mass density,18725 kPa,1444.7 ± 1.6 kg/m3
same,mass density,18755 kPa,1444.7 ± 1.6 kg/m3
same,mass density,18796 kPa,1444.9 ± 1.6 kg/m3
same,mass density,18830 kPa,1445 ± 1.6 kg/m3
same,mass density,18875 kPa,1445.3 ± 1.6 kg/m3
same,mass density,18905 kPa,1445.6 ± 1.6 kg/m3
same,mass density,18955 kPa,1445.7 ± 1.6 kg/m3
same,mass density,18985 kPa,1445.8 ± 1.6 kg/m3
same,mass density,19031 kPa,1445.9 ± 1.6 kg/m3
same,mass density,19066 kPa,1446.1 ± 1.6 kg/m3
same,mass density,19107 kPa,1446.4 ± 1.6 kg/m3
same,mass density,19137 kPa,1446.6 ± 1.6 kg/m3
same,mass density,19178 kPa,1446.8 ± 1.6 kg/m3
same,mass density,19218 kPa,1446.9 ± 1.6 kg/m3
same,mass density,19263 kPa,1447.2 ± 1.6 kg/m3
same,mass density,19293 kPa,1447.3 ± 1.6 kg/m3
same,mass density,19333 kPa,1447.5 ± 1.6 kg/m3
same,mass density,19378 kPa,1447.6 ± 1.6 kg/m3
same,mass density,19412 kPa,1447.8 ± 1.6 kg/m3
same,mass density,19441 kPa,1448 ± 1.6 kg/m3
same,mass density,19476 kPa,1448.1 ± 1.6 kg/m3
same,mass density,19522 kPa,1448.4 ± 1.6 kg/m3
same,mass density,19553 kPa,1448.5 ± 1.6 kg/m3
same,mass density,19589 kPa,1448.7 ± 1.6 kg/m3
same,mass density,19625 kPa,1448.9 ± 1.6 kg/m3
same,mass density,19669 kPa,1448.9 ± 1.6 kg/m3
same,mass density,19710 kPa,1449.1 ± 1.6 kg/m3
same,mass density,19750 kPa,1449.4 ± 1.6 kg/m3
same,mass density,19781 kPa,1449.5 ± 1.6 kg/m3
same,mass density,19822 kPa,1449.6 ± 1.6 kg/m3
same,mass density,19858 kPa,1449.8 ± 1.6 kg/m3
same,mass density,19893 kPa,1450 ± 1.6 kg/m3
same,mass density,19930 kPa,1450.1 ± 1.6 kg/m3
same,mass density,19961 kPa,1450.3 ± 1.6 kg/m3
same,mass density,19996 kPa,1450.4 ± 1.6 kg/m3
same,mass density,20037 kPa,1450.7 ± 1.6 kg/m3
same,mass density,20072 kPa,1450.8 ± 1.6 kg/m3
same,mass density,20108 kPa,1450.8 ± 1.6 kg/m3
same,mass density,20144 kPa,1451.1 ± 1.6 kg/m3
same,mass density,20180 kPa,1451.2 ± 1.6 kg/m3
same,mass density,20221 kPa,1451.4 ± 1.6 kg/m3
same,mass density,20257 kPa,1451.5 ± 1.6 kg/m3
same,mass density,20293 kPa,1451.8 ± 1.6 kg/m3
same,mass density,20324 kPa,1451.8 ± 1.6 kg/m3
same,mass density,20366 kPa,1452 ± 1.6 kg/m3
same,mass density,20397 kPa,1452.3 ± 1.6 kg/m3
same,mass density,20433 kPa,1452.4 ± 1.6 kg/m3
same,mass density,20464 kPa,1452.6 ± 1.6 kg/m3
same,mass density,20500 kPa,1452.8 ± 1.6 kg/m3
same,mass density,20530 kPa,1452.8 ± 1.6 kg/m3
